Laboratory results as given in US8460894B2, “Calcium-sensing receptor 2 (CaR2) and methods for using” (ABT Holding Company, priority 2002, dated 2013).
pEC50: −log10 of the molar value. Values joined by “and” are separate entries in the source; they are usually repeats but may differ in a detail not shown here. Identical values can stand only once. “Also recorded” adds a separate entry of the source.

Legend:
CaR2 = target: T1, CaR2 (Homo sapiens, UniProt Q5T6X5, P91S); experiment: FLIPR intracellular Ca^++ assay in HEK293 clone expressing CaR2 (HEK-167B12-2.1); type: cell-based; details: for FLIPR response / activation of CaR2 by ligand: initial ligand testing, ligand alone; for effect of Pb on activation of CaR2 by combined OC and Ca^++: OC and Ca^++ pre-incubated with / in the presence of Pb
T1 construct: molecular acquisition of the full-length cDNA led to the identification of the six coding exons; expressed in transfected cells
T1 sequence (Q5T6X5 19-926 P91S): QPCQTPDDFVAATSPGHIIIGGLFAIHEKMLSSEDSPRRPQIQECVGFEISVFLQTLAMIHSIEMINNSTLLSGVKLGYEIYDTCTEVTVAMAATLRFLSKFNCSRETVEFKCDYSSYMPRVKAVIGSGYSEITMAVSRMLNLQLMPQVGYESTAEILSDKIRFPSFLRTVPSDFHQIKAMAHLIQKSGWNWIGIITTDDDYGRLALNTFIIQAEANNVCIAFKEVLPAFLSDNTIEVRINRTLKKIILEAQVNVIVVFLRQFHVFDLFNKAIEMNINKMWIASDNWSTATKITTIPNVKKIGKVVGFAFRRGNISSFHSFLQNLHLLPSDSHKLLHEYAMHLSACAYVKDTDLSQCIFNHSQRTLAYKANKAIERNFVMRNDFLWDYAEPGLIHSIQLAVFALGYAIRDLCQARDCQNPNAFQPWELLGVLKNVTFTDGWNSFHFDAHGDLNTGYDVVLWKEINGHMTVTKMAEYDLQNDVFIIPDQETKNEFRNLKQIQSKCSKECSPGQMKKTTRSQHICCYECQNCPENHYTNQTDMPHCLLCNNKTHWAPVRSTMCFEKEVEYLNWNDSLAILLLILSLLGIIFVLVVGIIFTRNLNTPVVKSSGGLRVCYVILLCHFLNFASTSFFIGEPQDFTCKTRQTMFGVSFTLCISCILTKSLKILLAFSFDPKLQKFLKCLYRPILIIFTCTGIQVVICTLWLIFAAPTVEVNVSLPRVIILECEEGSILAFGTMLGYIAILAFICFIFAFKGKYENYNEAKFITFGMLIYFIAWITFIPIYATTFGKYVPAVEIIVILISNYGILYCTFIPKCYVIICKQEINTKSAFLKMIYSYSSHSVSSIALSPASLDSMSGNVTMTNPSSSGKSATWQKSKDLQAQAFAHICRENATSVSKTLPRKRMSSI
Method: To facilitate pharmacological experimentation, CaR2 cDNA was cloned into the mammalian expression vector pcDNA 3.1 (+) Neo with or without a COOH-terminal FLAG epitope. The transgene was introduced into the HEK293 cell line and stable transfectants were identified. These clones were analyzed for CaR2 expression by qPCR and Western blotting to identify those clones that were suitable for ligand identification.
Based on the homology to the characterized goldfish odorant receptor 5.24, initial studies investigated the ability of 18 naturally occurring amino acids to trigger changes of intracellular Ca^++ levels in the transfected cells, as measured with a fluorescent imaging plate reader (FLIPR).
(§1) Intracellular Ca^++ was measured using a fluorometric imaging plate reader (FLIPR) [Molecular Devices]. Cells were seeded at a density of 1×10^5/well (96-well plate) or 1×10^4/well (384-well plate) in collagen coated plates and incubated overnight at 36.9° C. with 5% CO2. Medium was aspirated from the plates and replaced with equal volumes of a no wash calcium dye (Molecular Devices) and modified Hank's buffered saline solution [Ca^2+-free, Mg^2+-free] (140 mM NaCl, 5.4 mM KCl, 0.64 mM KH2PO4, 3 mM NaHCO3, 5.5 mM C6H12O6, 20 mM HEPES, 2.5 mM Caprylic acid (or 2.5 mM probenecid)). The plates were incubated for 1 hour at 36.9° C. with 5% CO2. FLIPR was used to measure changes in intracellular calcium as relative fluorescence upon activation by ligand.

parental HEK293 cells = experiment: FLIPR intracellular Ca^++ assay in parental HEK293 cells (no CaR2); type: cell-based
Method: as §1
(§2) Also, the apical side of cells lining tubules in Henle's loop in kidney and in epithelial cells lining prostate ducts are microenvironments where a higher than standard extracellular Ca^++ can be expected.
(§3) Having shown that high calcium levels activate CaR2, the effects of several agents known to modulate bone metabolism were determined.

Saos-2 osteoblasts = experiment: Osteoblast survival and proliferation in high mM Ca^++; type: cell-based
Source text: Saos-2 osteoblasts (ATCC-HTB-85) express CaR2 as determined by Western Blotting.

CaR [1] = details: CaR in transfected HEK 293 cells; read-out: EC50 for Ca^++ at CaR; cited from earlier work
CaR [2] = experiment: Activation of CaR in transfected HEK 293 cells; type: cell-based; details: HEK293 cells that express the previously characterized CaR
Method: as §1, §2, §3

Compound: [Ca+2] [Ca^++, calcium]
- CaR2 activation by Ca^++ (CaR2; 10 mM Ca^++ (FIG. 4)): modest activation
- CaR2 activation by Ca^++ (CaR2; 40 mM Ca^++ (FIG. 4)): robustly activated
- pEC50 (CaR2; HEK293 clone expressing CaR2, FLIPR): 1.07
- calcium level causing marked increase in fluorescence signal (intracellular Ca^++) (CaR2; clone expressing CaR2 (FIG. 2)): > 20 mM
- FLIPR response / activation of CaR2 by ligand (CaR2): failed to elicit a positive FLIPR response
- increase in fluorescence signal by high calcium levels (parental HEK293 cells; parental cell line, >20 mM calcium): not observed
- growth of Saos-2 cells (Saos-2 osteoblasts; buffer containing 2 mM Ca^++): grew
- proliferation and survival of Saos-2 cells (Saos-2 osteoblasts; medium containing 10 mM Ca^++): did not proliferate
- proliferation and survival of Saos-2 cells (Saos-2 osteoblasts; medium containing 40 mM Ca^2+): survived and proliferated normally
- pEC50 (CaR [1]): 2.39 and 2.40

Compound: NCCCC(=O)O [GABA, reference compound]
- FLIPR response / activation of CaR2 by ligand (CaR2): failed to elicit a positive FLIPR response

Compound: CN[C@H](CC(=O)O)C(=O)O [NMDA, reference compound]
- FLIPR response / activation of CaR2 by ligand (CaR2): failed to elicit a positive FLIPR response

Compound: [Pb+2] [Pb^++, reference compound]
- effect of Pb on activation of CaR2 by combined OC and Ca^++ (CaR2): blocked
- effect of Pb on activation of CaR2 by combined OC and Ca^++ (CaR2; listed as Pb^2+): reversed

Compound: OC: vitamin K-dependent bone calcium binding protein, 49 amino acids, synthesized by osteoblasts (YLYQWLGAPVPYPDPLEPRREVCELNPDCDELADHIGFQEAYRRFYGPV; UniProt P02818 52-100, looked up)
- synergistic effect of OC and calcium on CaR2 (CaR2; OC and calcium added separately, not pre-incubated): not when both ligands are added separately
- effect of OC on activation of CaR2 by Ca^++ (CaR2; OC pre-incubated with calcium): CaR2 was activated at lower calcium levels and the activation by high mM calcium was potentiated; also recorded: dose-dependent effect; also recorded: activates CaR2 when pre-incubated with 10 mM Ca^++ in a dose-dependent manner; also recorded: increases the sensitivity of CaR2 to Ca^++
- activation of CaR2 by OC (CaR2; in the absence of calcium): does not activate CaR2
- effect of OC and Ca^++ (CaR [2]): not observed
- effect of OC and Ca^++ (parental HEK293 cells; parental HEK293 cells that do not express CaR2): not observed

Compound: calcitonin [CT]
- intracellular Ca^++ in the CaR2 clone (CaR2; either ligand (BMP-2 or CT) added alone, absence of calcium): not seen
